Experimental data reported in paper PMC8708382, “Heterocyclic Cathinones as Inhibitors of Kynurenine Aminotransferase II—Design, Synthesis, and Evaluation” (Pharmaceuticals, 2021).
Where a name gives a salt, the structure may show the parent alone. Read-outs that look alike come from different tables or passages of the source.

Columns and labels:
hKAT-II = biological target: T1, hKAT-II (Homo sapiens, UniProt Q8N5Z0); assay: Coupled fluorescence in vitro inhibition assay of hKAT-II; assay type: biochemical; conditions: 20 nM hKAT-II; for IC50: 30 min pre-incubation; for Inhibitory Activity [%I ± SEM] c = 1 µM: 30 min pre-incubation with enzyme, mean ± SEM
T1 construct: hexahistidine tag (N); made in house; host or cells: E. coli BL21(DE3)-RIL
Protocol: The inhibitory activity of amino ketones 11 and 12 was evaluated using a fluorimetric in vitro assay. The activity was determined as the percentage of inhibition (%I) at a concentration of 1 µmol/L and also as IC50 values (Table 1). The observed inhibitory activity confirmed the validity of the computational model and was suitable to conduct a synthesis-directed SAR study around the predicted heterocyclic α-amino ketone structure.
The nucleotide sequence encoding hKAT-II gene was constructed by Invitrogen, Thermo Fisher Scientific. The hKAT-II gene, optimized for heterologous expression in E. coli, was cloned into a pET15b vector using NdeI-XhoI. The hKAT-II protein, carrying an N-terminal hexahistidine tag, was produced in E.coli BL21(DE3)-RIL cells for 4 h at 37 °C. The bacterial cells were then harvested and disintegrated using One-Shot. […] (25.000× g, 30 min) centrifugation cleared cell lysate containing hKAT-II was loaded on the top of a HisTrap Fast Flow column (Cytiva) equilibrated in loading buffer (40 mM Tris, pH 8; 1000 mM NaCl, 40 µM PLP, 5 mM MgCl2, 20 mM imidazole). Following elution of the bound proteins by the loading buffer containing 600 mM imidazole, purified hKAT-II was dialyzed into a storage buffer (20 mM Hepes pH 7.5; 50 mM NaCl, 70 µM PLP, 10% glycerol), concentrated to 1.0–1.5 mg/mL, aliquoted, and stored at −80 °C.
hKAT-II activity was measured using a fluorescence assay utilizing L-α-aminoadipic acid (AAD) and α-ketoglutarate as the substrates as previously described. The assay medium (100 µL) consisted of 0.75 µM of hKAT-II, 0.3 mM of AAD, 50 µM α-ketoglutarate, 3 mM NAD^+, 88 µg/mL of glutamic dehydrogenase, and 5 µM pyridoxal phosphate (PLP) in a 0.1 M phosphate buffer pH 7.5. The activity of the enzyme was assessed on a Spark multiple mode reader (Tecan Group Ltd., Männedorf, Switzerland) with an excitation wavelength of 340 nm and emission wavelength of 390 nm at 37 °C. The plate was shaken for 20 s before reading. The kinetic interval was set at 30 s between each reading, and data were collected for 30 min. The activity of the enzyme was assayed in pentaplicate in each measurement (n = 3). Kinetic data were then collected over a period of 30 min, and the linear part of the initial velocity was used to calculate the enzyme activity expressed as the slope of the linearized curve via the linear regression function (Excel, Microsoft, USA).
The inhibitory activity of the tested compounds was determined via 30 min pre-incubation with the enzyme at various concentrations of the inhibitor at room temperature in a 0.1 M phosphate buffer pH 7.5 with 5 µM PLP. The enzyme reaction was initiated by the addition of a substrate and cofactors. The final mixture contained 20 nM of hKAT-II, 0.3 mM of AAD, 50 µM α-ketoglutarate, 3 mM NAD^+, and 88 µg/mL of glutamic dehydrogenase. Kinetic data were collected over a period of 30 min, and the slope of the linearized curve was calculated as above. The inhibitory activity in %I at a given concentration was calculated for novel compounds using the following equation:(1) Inhibition [%I]=(V0− Vi/V0)×100, where V0 and Vi are the activity of the enzyme in the absence and presence of the inhibitor, respectively. All the data were obtained in pentaplicate for each measurement (n = 3). Alternatively, the IC50 values for selected novel compounds were assessed. GraphPad Prism 8 software (San Diego, USA) was used for the IC50 value calculation using non-linear regression (four parameters). […]

[1] = non-linear regression (four parameters), read-out: IC50 ± SEM

T1 sequence (Q8N5Z0 30-425): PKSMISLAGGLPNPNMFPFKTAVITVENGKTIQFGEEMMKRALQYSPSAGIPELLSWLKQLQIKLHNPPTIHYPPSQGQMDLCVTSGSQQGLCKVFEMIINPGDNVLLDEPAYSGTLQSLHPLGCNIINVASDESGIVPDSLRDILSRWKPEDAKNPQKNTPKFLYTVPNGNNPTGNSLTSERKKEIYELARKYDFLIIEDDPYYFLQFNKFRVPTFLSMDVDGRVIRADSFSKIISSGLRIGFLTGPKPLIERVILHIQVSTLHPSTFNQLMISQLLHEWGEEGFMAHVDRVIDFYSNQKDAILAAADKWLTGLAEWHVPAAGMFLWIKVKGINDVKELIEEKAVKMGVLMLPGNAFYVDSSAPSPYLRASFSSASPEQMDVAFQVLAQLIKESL

Compound	melting point	IC50 (hKAT-II; assay validation, read-out: IC50 of the reference inhibitor)	IC50 (hKAT-II; [1])	Inhibitory Activity [%I ± SEM] c = 1 µM (hKAT-II)
C[C@H](N)C(=O)c1cn(-c2cccnc2)nn1 (as salt: hydrochloride) [Compound 26l]	140 to 143 °C (dec.)	–	–	–
N[C@H]1Cc2ccccc2N(O)C1=O [Compound 3, PF-04859989, reference compound]	–	28 ± 5 nM	–	–
C[C@H](N)C(=O)c1ncc(-c2ccccc2)s1 [Compound 11, 2-alaninoyl-5-phenylthiazole]	> 168 °C (dec.)	–	1620 ± 1430 nM	41.41 ± 4.15 %I
C[C@H](N)C(=O)c1cn(-c2ccccc2)nn1 [Compound 12, 4-alaninoyl-1-phenyl-1H-1,2,3-triazole]	> 178 °C (dec.)	–	3210 ± 260 nM	43.19 ± 2.30 %I
CC(C)[C@H](N)C(=O)c1cn(-c2ccccc2)nn1.Cl [Compound 21a]	> 182 °C (dec.)	–	–	10.32 ± 4.81 %I
N[C@@H](Cc1ccccc1)C(=O)c1cn(-c2ccccc2)nn1 [Compound 21b]	> 174 °C (dec.)	–	–	14.52 ± 3.71 %I
Cl.N[C@@H](CCc1ccccc1)C(=O)c1cn(-c2ccccc2)nn1 [Compound 21c]	> 175 °C (dec.)	–	–	16.50 ± 3.71 %I
CCCC[C@H](N)C(=O)c1cn(-c2ccccc2)nn1.Cl [Compound 21d]	> 173 °C (dec.)	–	–	13.46 ± 5.46 %I
CC[C@H](N)C(=O)c1cn(-c2ccccc2)nn1.Cl [Compound 21e]	–	–	–	21.82 ± 4.80 %I
N[C@H](C(=O)c1cn(-c2ccccc2)nn1)C1CC1 [Compound 21f]	> 183 °C (dec.)	–	–	7.44 ± 3.75 %I
CC(C)[C@H](N)C(=O)c1ncc(-c2ccccc2)s1 [Compound 25a]	> 170 °C (dec.)	–	–	31.24 ± 3.64 %I
N[C@@H](Cc1ccccc1)C(=O)c1ncc(-c2ccccc2)s1 [Compound 25b]	> 175 °C (dec.)	–	–	7.22 ± 2.70 %I
N[C@@H](CCc1ccccc1)C(=O)c1ncc(-c2ccccc2)s1 [Compound 25c]	> 135 °C (dec.)	–	–	31.32 ± 0.88 %I
CCCC[C@H](N)C(=O)c1ncc(-c2ccccc2)s1 [Compound 25d]	124 to 127 °C	–	–	37.22 ± 2.53 %I
CC[C@H](N)C(=O)c1ncc(-c2ccccc2)s1 [Compound 25e]	> 180 °C (dec.)	–	–	44.18 ± 3.42 %I
N[C@H](C(=O)c1ncc(-c2ccccc2)s1)C1CC1 [Compound 25f]	> 165 °C (dec.)	–	–	6.12 ± 2.66 %I
COc1ccc(-n2cc(C(=O)[C@H](C)N)nn2)cc1 [Compound 26a]	> 180 °C (dec.)	–	–	38.50 ± 2.21 %I
COc1cccc(-n2cc(C(=O)[C@H](C)N)nn2)c1 [Compound 26b]	> 171 °C (dec.)	–	–	18.20 ± 2.27 %I
COc1ccccc1-n1cc(C(=O)[C@H](C)N)nn1 [Compound 26c]	> 168 °C (dec.)	–	–	23.41 ± 3.97 %I
C[C@H](N)C(=O)c1cn(-c2ccc(C(C)(C)C)cc2)nn1 [Compound 26d]	> 181 °C (dec.)	–	–	0.98 ± 1.98 %I
Cc1ccc(-n2cc(C(=O)[C@H](C)N)nn2)cc1 [Compound 26e]	> 184 °C (dec.)	–	–	18.56 ± 2.33 %I
Cc1ccc(-n2cc(C(=O)[C@H](C)N)nn2)cc1C [Compound 26f]	> 170 °C (dec.)	–	–	9.10 ± 2.07 %I

Compound	melting point	IC50 (hKAT-II; assay validation, read-out: IC50 of the reference inhibitor)	IC50 (hKAT-II; [1])	Inhibitory Activity [%I ± SEM] c = 1 µM (hKAT-II)
Cc1ccc(-n2cc(C(=O)[C@H](C)N)nn2)c(C)c1 [Compound 26g]	> 175 °C (dec.)	–	–	41.60 ± 6.39 %I
Cc1cccc(C)c1-n1cc(C(=O)[C@H](C)N)nn1 [Compound 26h]	> 176 °C (dec.)	–	–	25.38 ± 2.22 %I
C[C@H](N)C(=O)c1cn(-c2cccc3ccccc23)nn1 [Compound 26i]	> 172 °C (dec.)	–	–	4.32 ± 1.32 %I
C[C@H](N)C(=O)c1cn(-c2ccc3ccccc3c2)nn1 [Compound 26j]	> 182 °C (dec.)	–	–	27.81 ± 3.33 %I
C[C@H](N)C(=O)c1cn(-c2ccccn2)nn1.Cl [Compound 26k]	> 198 °C (dec.)	–	–	20.73 ± 1.83 %I
C[C@H](N)C(=O)c1cn(-c2cccnc2)nn1 [Compound 26l]	–	–	–	23.63 ± 2.30 %I
C[C@H](N)C(=O)c1cn(-c2ccncc2)nn1.Cl.Cl [Compound 26m]	> 183 °C (dec.)	–	–	33.48 ± 4.88 %I
C[C@H](N)C(=O)c1cn(-c2ccc(F)cc2)nn1.Cl [Compound 26n]	> 183 °C (dec.)	–	–	41.77 ± 3.01 %I
C[C@H](N)C(=O)c1cn(-c2ccc(C(F)(F)F)cc2)nn1 [Compound 26o]	–	–	–	9.70 ± 1.67 %I
C[C@H](N)C(=O)c1cn(-c2cccc([N+](=O)[O-])c2)nn1.Cl [Compound 26p]	> 183 °C (dec.)	–	–	41.43 ± 2.67 %I
C[C@H](N)C(=O)c1cn(-c2ccc([N+](=O)[O-])cc2)nn1.Cl [Compound 26q]	> 191 °C (dec.)	–	–	41.73 ± 2.66 %I
C[C@H](N)C(=O)c1cn(-c2ccc(Cl)cc2)nn1.Cl [Compound 26r]	> 177 °C (dec.)	–	–	23.86 ± 2.95 %I
C[C@H](N)C(=O)c1cn(-c2cccc(Cl)c2)nn1 [Compound 26s]	> 171 °C (dec.)	–	–	20.63 ± 3.78 %I
C[C@H](N)C(=O)c1cn(-c2ccccc2Cl)nn1.Cl [Compound 26t]	138 to 169 °C (dec.)	–	–	35.52 ± 3.63 %I
C[C@H](N)C(=O)c1cn(-c2ccc(Cl)c(Cl)c2)nn1 [Compound 26u]	> 163 °C (dec.)	–	–	19.33 ± 1.06 %I
C[C@H](N)C(=O)c1cn(-c2ccc(F)c(Cl)c2)nn1 [Compound 26v]	–	–	–	23.62 ± 4.30 %I
C[C@H](N)C(=O)c1cn(Cc2ccccc2)nn1.Cl [Compound 28a]	> 182 °C (dec.)	–	–	14.54 ± 3.19 %I
C[C@H](N)C(=O)c1cn(CCc2ccccc2)nn1.Cl [Compound 28b]	> 172 °C (dec.)	–	–	11.84 ± 5.76 %I
C[C@H](N)C(=O)c1cn(-c2ccc(F)cc2Cl)nn1 [Compound 32a]	> 158 °C (dec.)	–	–	25.30 ± 1.10 %I
CC[C@H](N)C(=O)c1cn(-c2ccc(F)cc2Cl)nn1 [Compound 32b]	> 196 °C (dec.)	–	–	21.25 ± 0.67 %I
CC[C@H](N)C(=O)c1cn(-c2ccc(F)cc2)nn1.Cl [Compound 32c]	> 182 °C (dec.)	–	–	35.94 ± 2.87 %I
C[C@H](N)C(=O)c1ncc(-c2ccc(F)cc2)s1 [Compound 49a, 2-alaninoyl-5-(4-fluorophenyl)thiazole]	–	–	97 ± 14 nM	61.54 ± 7.16 %I
